Test results published in US11911396B2, “Use of compound in preparation of drug for treating cerebral small vessel disease” (GUANGZHOU CELLPROTEK PHARMACEUTICAL CO., LTD, priority 2017, dated 2024).

Assays:
CD11b in microglia BV2 = test: Western blot of CD11b in BV2 cells stimulated with hemoglobin and hypoxia, with or without CD163 RNA interference; format: cell-based; details: 10 μM Triol, 20 μM hemoglobin and 1% hypoxia for 6 hours
Description: (§1) FIG. 7. […] According to the manufacturer's instructions, RNAiMAX was used to transfect CD163 No. 01 and scrambled interference fragment NC respectively to BV2 cells, BV2 cell culture medium was then added with or without 10 μM Triol, and BV2 cells were stimulated with 20 μM hemoglobin and 1% hypoxia for 6 hours, after which protein samples were collected, and the expression of microglial activation markers Iba-1 and CD11b was detected by Western blot.
(§2) 1) Preparation of protein samples (see the instructions of M-PER protein lysate): After the cells had been processed for the specified time, the medium was aspirated and then washed with 4° C. pre-chilled PBS (0.01M pH7.2˜7.3) for 3 times. 150-200 ul of M-PER protein lysate mixed with protease inhibitor (PMSF 100×) was added, which was lysed on ice for 10 minutes to fully lyse the cells. […] 2) BCA protein quantification (see the instructions of BCA protein quantification kit): corresponding components were added to a 96-well detection plate by the ratio of quantification reagent A solution:B solution:ddH2O:protein=100:2:7.5:5, and albumin standards diluted in gradient concentration were added to draw a standard curve. […] After the reaction, the absorbance of each well at a wavelength of 562 nm was detected using a microplate reader. […]

free hemoglobin = test: Immunofluorescence of extravascular free hemoglobin in prefrontal cortex brain tissue, acute hypobaric hypoxia model; format: in vivo, cynomolgus monkeys (Macaca fascicularis); details: 7500 meters for 48 hours, compared with acute hypobaric hypoxia group, FIG. 1
Source text: FIG. 1. Acute hypobaric hypoxia caused an increase in extravascular distribution of free hemoglobin in the brain tissue of the prefrontal cortex of cynomolgus monkeys (Macaca fascicularis). […] B. MFI (Mean Fluorescence Intensity) was quantified using Nikon NIS-Element software. The statistics of the relative fluorescence intensity of free hemoglobin distributed extravascularly in the brain tissue of cynomolgus monkeys was shown, and one-way ANOVA analysis and Dunnutt's t test were used to perform statistical tests, **, p<0.01, ns, no statistical difference, n=4. NN: Normobaric Normoxia group; HH: Hypobaric Hypoxia group; HH+Triol: Hypobaric Hypoxia with Triol administration group; HH+PROG: Hypobaric Hypoxia with control drug administration group. PROG represents the control drug progesterone.
The thickness of paraffin sections was 5 μm. For fresh paraffin sections, the sections were dried at 37° C. overnight and then dried at 55° C. for 30 minutes. The sections were quickly placed in xylene for dewaxing. […] NIS-Elements Analysis software was used to analyze the fluorescence intensity of confocal images, which was then normalized with the fluorescence intensity per unit area according to the built-in scale. […]

Iba-1 in microglia BV2 = test: Western blot of Iba-1 in BV2 cells stimulated with hemoglobin and hypoxia, with or without CD163 RNA interference; format: cell-based; details: 10 μM Triol, 20 μM hemoglobin and 1% hypoxia for 6 hours
Description: as §1, §2

Compound: C[C@@]12CCCC1C1C[C@@H](O)[C@@]3(O)C[C@@H](O)CC[C@]3(C)C1CC2 (stereo partly drawn) [Triol, 5α-androst-3β,5,6β-triol]
- effect on the up-regulation of CD11b in hypoxia and hemoglobin-activated microglia cells (CD11b in microglia BV2; without CD163 interference): inhibitory effect
- inhibitory effect on the up-regulation of CD11b after interfering CD163 (CD11b in microglia BV2; CD163 RNA interference, FIG. 7): cancelled
- distribution of extravascular free hemoglobin (free hemoglobin): significantly reduced
- effect on the up-regulation of Iba-1 in hypoxia and hemoglobin-activated microglia cells (Iba-1 in microglia BV2; without CD163 interference): inhibitory effect
- inhibitory effect on the up-regulation of Iba-1 after interfering CD163 (Iba-1 in microglia BV2; CD163 RNA interference, FIG. 7): cancelled
